Reference: PubChem BioAssay (NCI)
“And” between values parts separate entries of the source, which are not always exact repeats. Equal entries are not always repeated.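 Grown in 96-well plates, cells were treated for 48 hours with each compound at five concentrations. Insufficient inhibition: endpoint recorded as highest concentration tested. GI50 is the concentration that inhibits growth by half. TGI: total growth inhibition.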

Columns and labels:
Test in all cases: DTP human tumour cell line panel, 48 h
[1] = tested on: DU-145 prostate
[2] = tested on: U251 CNS
[3] = tested on: PC-3 prostate
[4] = tested on: ACHN renal
[5] = tested on: EKVX NSCLC
[6] = tested on: SK-OV-3 ovarian
[7] = tested on: BT-549 breast
[8] = tested on: HL-60(TB) leukemia

C=C(C(=O)OC)[C@@H]1C[C@@H](OC(C)=O)C2=C[C@H](C[C@@]3(C)O[C@@H]3C3=CC(C)=C(O3)[C@H]1OC(C)=O)OC2=O
TGI [1]: > 100 µM
TGI [2]: 71.1 µM
TGI [3]: > 100 µM
TGI [4]: 49.4 µM
TGI [5]: 38.9 µM
TGI [6]: > 100 µM
TGI [7]: 31.3 µM

COc1ccccc1/C=C/C1=NN(c2cccc(S(=O)(=O)O)c2)C2(C1)C(Cl)C(=O)N2c1nc2ccccc2s1 (configuration not stated)
TGI [1]: > 100 µM
TGI [2]: > 100 µM
TGI [3]: > 100 µM
TGI [4]: > 100 µM
TGI [5]: > 100 µM
TGI [6]: > 100 µM
TGI [7]: > 100 µM
TGI [8]: 45.5 µM

CN(CCCNC(=O)c1cn(C)c2c1Cc1ccccc1-2)CCCNC(=O)c1cn(C)c2c1Cc1ccccc1-2
TGI [2]: 20.2 µM
TGI [3]: 22.7 µM
TGI [4]: 22.9 µM
TGI [5]: 22.6 µM
TGI [6]: 32.6 µM
TGI [7]: 39.2 µM
TGI [8]: 28.6 µM

COC(=O)/C=C1/OC(c2ccccc2)=C(C)C1=O
TGI [1]: 33.6 µM
TGI [2]: 27.1 µM
TGI [4]: 25.7 µM
TGI [5]: 32 µM
TGI [6]: 22.6 µM
TGI [7]: 8.45 µM
TGI [8]: 4.97 µM

COc1ccc(COC(=O)NCC(=O)NC(C)C(=O)NC(Cc2ccccc2)C(=O)OCc2ccccc2)cc1 (configuration not stated)
GI50 [1]: 31.1 µM and > 100 µM
TGI [1]: > 100 µM
TGI [2]: 44.3 µM and 47.3 µM
GI50 [3]: 20 µM and > 100 µM
TGI [3]: 47.8 µM and > 100 µM
TGI [4]: 44.5 µM and 36.7 µM
GI50 [5]: 23.4 µM and 48.7 µM
TGI [5]: 56.6 µM and > 100 µM
GI50 [6]: 22.9 µM and > 100 µM
TGI [6]: 42.5 µM and > 100 µM
GI50 [7]: 22.1 µM and > 100 µM
TGI [7]: 48.1 µM and > 100 µM
GI50 [8]: 3.12 µM and 17.7 µM
TGI [8]: 10.7 µM and 37.8 µM

CC(=O)OCC(=O)OC[C@H](OCc1ccccc1)[C@@H]1[C@H](OC(C)=O)C(=O)N1Cc1ccccc1
TGI [1]: > 100 µM
TGI [2]: > 100 µM
TGI [3]: > 100 µM
TGI [4]: > 100 µM
TGI [5]: > 100 µM
TGI [6]: > 100 µM

CC(C)(Cl)C(Br)CCC(Br)(CCl)C(Cl)CBr (configuration not stated)
TGI [1]: > 10 µM
TGI [2]: > 10 µM
TGI [3]: > 10 µM
TGI [4]: > 10 µM
TGI [5]: > 10 µM
TGI [6]: > 10 µM
TGI [8]: > 10 µM

Cc1ccc2c(=O)cc(-c3ccc(C)s3)[nH]c2n1
TGI [1]: > 55.4 µM
TGI [2]: > 55.2 µM
TGI [3]: > 44.9 µM
TGI [4]: > 69 µM
TGI [5]: > 100 µM
TGI [6]: > 100 µM
TGI [7]: > 100 µM
TGI [8]: 0.607 µM

Cc1ccc2nc(C(C)C)c(=O)[nH]c2c1
TGI [1]: > 100 µM
TGI [2]: > 100 µM
TGI [3]: 34.1 µM
TGI [4]: > 100 µM
TGI [5]: > 100 µM
TGI [6]: > 100 µM
TGI [7]: > 100 µM
TGI [8]: > 100 µM

O=[N+]([O-])c1ccc(-n2nc3ccc4c(no[n+]4[O-])c3n2)cc1
TGI [1]: > 100 µM
TGI [2]: > 100 µM
TGI [3]: > 100 µM
TGI [4]: > 100 µM
TGI [5]: > 100 µM
TGI [6]: > 100 µM
TGI [7]: > 100 µM
TGI [8]: > 100 µM

CCN(CC)CCN(C)c1ccc(CO)c2c1C(=O)c1ccccc1S2=O (configuration not stated)
TGI [1]: 28.3 µM
TGI [2]: 3.27 µM
TGI [3]: 46 µM
TGI [4]: 23.8 µM
TGI [5]: 13.6 µM
TGI [6]: 32.4 µM
TGI [7]: 26.7 µM
TGI [8]: 51.8 µM

CN(C)c1c(C2OC(CO)C(O)C2O)c(=O)c1=O (configuration not stated)
TGI [1]: > 100 µM
TGI [2]: > 100 µM
TGI [3]: > 100 µM
TGI [4]: > 100 µM
TGI [5]: > 100 µM
TGI [6]: > 100 µM
TGI [7]: > 100 µM

Nc1nc(NCCCO)cc(=O)[nH]1
TGI [1]: > 100 µM
TGI [2]: > 100 µM
TGI [3]: > 100 µM
TGI [4]: > 100 µM
TGI [5]: > 100 µM
TGI [6]: > 100 µM
TGI [7]: > 100 µM
TGI [8]: > 100 µM

O=C1/C(=C/c2ccccc2[N+](=O)[O-])N=C(c2ccccc2)N1c1nc2ccccc2s1
TGI [1]: 47.6 µM
TGI [2]: > 100 µM
TGI [3]: > 100 µM
TGI [4]: 82.1 µM
TGI [5]: > 100 µM
TGI [7]: 49.4 µM
TGI [8]: 57.1 µM

O=C1NN(Cc2ccccc2)C(=O)N2CCC[C@@H]12
TGI [1]: > 100 µM
TGI [3]: > 100 µM
TGI [4]: > 100 µM
TGI [5]: > 100 µM
TGI [6]: > 100 µM
TGI [8]: > 100 µM

CC(C)C(OC(=O)c1ccc(NCC2=CC(=O)C=CC2=O)cc1)C(C)C
TGI [1]: 65.5 µM
TGI [2]: 13.5 µM
TGI [3]: 29.9 µM
TGI [4]: 21.2 µM
TGI [5]: 29.1 µM
TGI [6]: 42.1 µM
TGI [7]: 15.1 µM
TGI [8]: 3.96 µM

CC(=O)c1ccc2c(c1)CC1(C2)Cc2cc3c(c(C(=O)O)c2C1)CCC3 (configuration not stated)
TGI [1]: > 100 µM
TGI [2]: > 100 µM
TGI [3]: > 100 µM
TGI [4]: > 100 µM
TGI [5]: > 100 µM
TGI [6]: > 100 µM
TGI [7]: > 100 µM
TGI [8]: > 100 µM

CCC(C)[C@@H](Nc1c(O)c2c(c(O)c1Cl)C(=O)C=CC2=O)C(=O)OC (some centres not stated)
TGI [1]: > 10 µM
TGI [2]: 8.83 µM
TGI [3]: > 10 µM
TGI [4]: > 10 µM
TGI [5]: > 10 µM
TGI [6]: > 10 µM
TGI [7]: > 10 µM
TGI [8]: 5.93 µM

CN(C)N1C(=O)S/C(=C\c2ccc([N+](=O)[O-])cc2)C1=O
TGI [1]: > 100 µM
TGI [2]: > 100 µM
TGI [3]: > 100 µM
TGI [4]: > 100 µM
TGI [5]: > 100 µM
TGI [6]: > 100 µM
TGI [8]: > 100 µM

CC1=CC[C@@]2(C)CC[C@](O)(C(C)C)C2C(OC(=O)c2ccccc2)C1 (some centres not stated)
TGI [1]: 32.5 µM
TGI [2]: 60 µM
TGI [3]: 45.6 µM
TGI [4]: 32.1 µM
TGI [5]: 32.3 µM
TGI [6]: 28.8 µM
TGI [8]: 82.2 µM

O=C1O[C@H]2[C@H](OC(=O)c3cc(O)c(O)c(O)c3)[C@@H](OC(=O)c3cc(O)c(O)c4c3[C@@H]3C1=CC(=O)C(O)(O)C3(O)O4)[C@H](OC(=O)c1cc(O)c(O)c(O)c1)O[C@@H]2COC(=O)c1cc(O)c(O)c(O)c1 (some centres not stated)
TGI [1]: > 100 µM
TGI [2]: > 100 µM
TGI [3]: > 100 µM
TGI [4]: > 100 µM
TGI [5]: > 100 µM
TGI [6]: > 100 µM
TGI [7]: > 100 µM
TGI [8]: > 100 µM

CCOP(=O)(OCC)C(NC(=O)C(C(F)(F)F)C(F)(F)F)c1ccccc1 (configuration not stated)
TGI [1]: > 100 µM
TGI [2]: > 100 µM
TGI [3]: > 100 µM
TGI [4]: > 100 µM
TGI [5]: > 100 µM
TGI [6]: > 100 µM
TGI [8]: 67.9 µM

O=C(CSCC(=O)N/N=C\c1cccc([N+](=O)[O-])c1)N/N=C\c1cccc([N+](=O)[O-])c1
TGI [1]: > 100 µM
TGI [2]: 32.4 µM
TGI [4]: 33.7 µM
TGI [5]: > 100 µM
TGI [6]: > 100 µM
TGI [8]: > 100 µM

Nc1ncnc2c1ncn2C1CCC(CP(=O)(O)O)C1 (configuration not stated)
TGI [1]: > 100 µM
TGI [2]: > 100 µM
TGI [3]: > 100 µM
TGI [4]: > 100 µM
TGI [5]: > 100 µM
TGI [6]: > 100 µM
TGI [8]: > 100 µM
